Measurements published in patent US10005817B2, “Peptide pharmaceuticals” (EUMEDERIS PHARMACEUTICALS, INC., priority 2012, dated 2018).
“Also recorded” adds a separate entry of the source. Where two headings read alike, the source gives them in different places. Non-standard residues stand in square brackets, D forms with d. Residues, ends and D or L forms follow the SMILES beside them. *: point of attachment. GlcA(β-D,1-O-dodecyl) = CCCCCCCCCCCCO[C@@H]1O[C@H](C(=O)*)[C@@H](O)[C@H](O)[C@H]1O; GlcA(β1-O-octyl) = CCCCCCCCO[C@@H]1O[C@H](C(=O)*)[C@@H](O)[C@H](O)[C@H]1O; Phe(2,4,6-Me3) = Cc1cc(C)c(C[C@H](N)C(=O)O)c(C)c1; Dmt = Cc1cc(O)cc(C)c1C[C@H](N)C(=O)O; hArg = N=C(N)NCCCC[C@H](N)C(=O)O; Nle = CCCC[C@H](N)C(=O)O; Ac5c = NC1(C(=O)O)CCCC1; Aib = CC(C)(N)C(=O)O

Experiments:
PTH receptor (PTHR1) = molecular target: T1, PTH receptor (PTHR1) (Homo sapiens, UniProt Q03431); experiment: PTH1 cellular assay, cAMP, agonist mode (SaOS2 cells, Cerep); assay type: cell-based
T1 construct: Cerep SA
T1 sequence (Q03431 27-593): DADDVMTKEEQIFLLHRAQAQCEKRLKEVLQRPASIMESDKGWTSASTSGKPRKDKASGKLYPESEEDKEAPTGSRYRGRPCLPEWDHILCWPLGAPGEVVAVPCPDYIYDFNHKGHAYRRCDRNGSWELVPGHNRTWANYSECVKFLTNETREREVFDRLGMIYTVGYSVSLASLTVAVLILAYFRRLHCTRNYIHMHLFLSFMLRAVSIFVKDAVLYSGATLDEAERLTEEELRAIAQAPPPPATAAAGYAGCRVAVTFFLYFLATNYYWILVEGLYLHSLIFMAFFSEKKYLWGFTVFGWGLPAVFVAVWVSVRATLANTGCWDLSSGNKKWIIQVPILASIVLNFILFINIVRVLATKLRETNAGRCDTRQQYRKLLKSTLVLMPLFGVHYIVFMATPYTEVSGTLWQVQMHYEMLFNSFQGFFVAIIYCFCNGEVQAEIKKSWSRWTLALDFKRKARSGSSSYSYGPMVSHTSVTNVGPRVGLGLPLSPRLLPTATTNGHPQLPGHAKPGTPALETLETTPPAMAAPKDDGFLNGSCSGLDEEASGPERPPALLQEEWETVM
Description: Compounds were weighed precisely in an amount of approximately 1 mg and assayed in standard cellular assays (cerep SA). The readout is the amount of cAMP generated in the cells treated with the test compounds, in either agonist or antagonist mode.
Compounds were dissolved in water and diluted in assay buffer containing 1% bovine serum albumin.

blood PO4 levels in rats = experiment: blood phosphate levels in rats after single s.c. injection; assay type: in vivo, rat
Source text: Following the method of Frolik, C.

blood Ca levels in rats = conditions: sc, 320 micrograms per kg (G4), at 5 hrs
Description: Each animal in a group was treated with a single sc injection of either vehicle or test agent.
Blood samples were collected via retro-orbital vein at 0.5, 1, 2, 4, and 5 hrs. post-injection and blood samples were stored on ice prior to centrifugation and testing for blood PO4 and Ca levels.

mu opioid receptor [1] = molecular target: T2, mu opioid receptor (Homo sapiens, UniProt P35372); experiment: mu opioid receptor cellular assay (MOP), agonist mode, cAMP readout (Cerep); assay type: cell-based
T2 construct: Cerep
T2 sequence (P35372 whole entry): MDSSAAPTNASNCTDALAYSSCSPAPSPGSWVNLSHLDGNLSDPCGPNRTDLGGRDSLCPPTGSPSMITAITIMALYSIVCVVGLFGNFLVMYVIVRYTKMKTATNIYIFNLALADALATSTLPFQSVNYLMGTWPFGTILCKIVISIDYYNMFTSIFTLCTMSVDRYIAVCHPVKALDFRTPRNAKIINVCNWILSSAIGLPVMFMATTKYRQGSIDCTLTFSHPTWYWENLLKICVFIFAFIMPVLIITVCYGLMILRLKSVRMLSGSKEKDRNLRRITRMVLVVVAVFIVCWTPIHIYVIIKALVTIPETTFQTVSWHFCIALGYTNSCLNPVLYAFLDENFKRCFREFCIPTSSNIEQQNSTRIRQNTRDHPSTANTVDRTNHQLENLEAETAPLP
Description: (§1) Compounds were weighed precisely in an amount of approximately 2 mg and assayed in standard cellular assays by the contract research organization Cerep, Inc. (Pullman, Wash.) as executed at their subsidiary, Cerep SA (Le Bois l'Eveque, France). The readout is the amount of cAMP generated in the cells treated with the test compounds, in either agonist or antagonist mode. The assays used were the mu opioid receptor cellular assay (MOP in agonist and antagonist mode), the delta2 opioid receptor cellular assay (DOP in agonist and antagonist mode) and the kappa opioid receptor cellular assay (KOP in agonist and antagonist mode). The assays used are described in Wang, J. B., et al. (1994) FEBS Lett 338: 217-222, Law, P. Y. and Loh, H. H. (1993) Mol Pharmacol 43: 684-693, and Avidor-Reiss, T., et al. (1995) FEBS Lett 361: 70-74. The stimulant for the cells in the DOR antagonist assay was 3×10E-8M DPDPE, a well-accepted DOR literature standard.

mu opioid receptor [2] = molecular target: T2, mu opioid receptor; experiment: mu opioid receptor cellular assay (MOP), antagonist mode, cAMP readout (Cerep); assay type: cell-based
Description: as §1

db/db mice = experiment: db/db mice, blood glucose after s.c. dosing; assay type: in vivo, mouse; conditions: db/db mice, s.c., 250 nmole/kg
Description: The 60 female db/db B6BKS (D) Leprdb/J (strain 000697) mice for this study were approximately 8 to 9 weeks old at arrival (Jackson Laboratory, Bar Harbor, Me.). […] One group of 8 female mice served as the vehicle control and received the vehicle, 0.2% BSA in saline, pH 7.4. One additional group of 8 female mice received the positive control article, liraglutide, at a dose level of 50 nmoles/kg. The test articles, vehicle, and positive control article were administered on Day 1, at approximately 0, 7, and 24 hours during the study via subcutaneous injection at a dose volume of 6 mL/kg.
Clinical observations were conducted at receipt, prior to randomization, and daily from Days 1 to 5. Body weights were measured and recorded at receipt, prior to randomization, and daily from Days 1 to 5. Food consumption was measured and recorded daily from Days 1 to 5. Blood samples for glucose analysis were collected pretest (Day −3) and at 0, 1, 2, 4, 8, 10, 24, 48, 72, and 96 hours following the first dose on Day 1. At study termination all animals were euthanized and the carcasses were discarded without further evaluation.

[3] = plasma protease stability, incubation in human plasma at 37 degC, LC-MS; assay type: in vitro ADME; conditions: over 8 hrs
[4] = in the body; by s.c. injection; cited from earlier work
[5] = in vivo; cited from earlier work

## CCCCCCCCCCCCO[C@@H]1O[C@H](C(=O)NCCCC[C@H](NC(=O)C(C)(C)NC(=O)[C@H](CCC(N)=O)NC(=O)[C@@H](NC(=O)[C@H](Cc2c[nH]c3ccccc23)NC(=O)[C@H](CCCNC(=N)N)NC(=O)[C@H](C)NC(=O)[C@H](CCCCNC(=N)N)NC(=O)[C@H](CCC(N)=O)NC(=O)[C@H](Cc2c[nH]cn2)NC(=O)[C@H](CCCC)NC(=O)[C@H](CC(C)C)NC(=O)[C@H](CCC(N)=O)NC(=O)[C@@H](NC(=O)[C@H](CCC(=O)O)NC(=O)C(C)(C)NC(=O)[C@@H](NC(=O)C2(N)CCCC2)C(C)C)[C@@H](C)CC)[C@@H](C)CC)C(=O)NC(C)(C)C(N)=O)[C@@H](O)[C@H](O)[C@H]1O [EU-232, Ac5c1-Val2-Aib3-Glu4-Ile5-Gln6-Leu7-Nle8-His9-Gln10-hArg11-Ala12-Arg13-Trp14-Ile15-Gln16-Aib17-Lys(N-epsilon-1′-dodecylbeta-D-glucuronyl)18-Aib19-NH2] (H-[Ac5c]V[Aib]EIQL[Nle]HQ[hArg]ARWIQ[Aib]K(GlcA(β-D,1-O-dodecyl))[Aib]-NH2)
PTH receptor (PTHR1)
  Characterization: super-agonistic response; also recorded: super-agonistic activity; also recorded: agonist
  EC50: 0.0024 µM
PTH receptor (PTHR1); SAOS-2, read-out: Maximal response (% PTHrP)
  Emax: 145%
PTH receptor (PTHR1); SAOS-2, read-out: maximal response
  Emax: 125%
Blood PO4 levels in rats; sc, last time point in the assay
  time point of maximal statistically significant effect on blood phosphate: 5 h
Blood PO4 levels in rats; single sc injection, 80 mcg groups
  blood PO4 levels: transient but not statistically significant decrease
Blood PO4 levels in rats; single sc injection, 5 hr. time point, dose not named in the sentence (320 group)
  maximal decrease in blood PO4 levels from time 0 hr. level: 25-35%
Blood Ca levels in rats
  blood calcium levels: no elevation

## CCCCCCCCO[C@@H]1O[C@H](C(=O)NCCCC[C@H](NC(=O)[C@H](Cc2c(C)cc(C)cc2C)NC(=O)[C@@H]2CCCN2C(=O)[C@@H](N)Cc2c(C)cc(O)cc2C)C(N)=O)[C@@H](O)[C@H](O)[C@H]1O [EU-A102, 2′,6′-dimethyl-L-tyrosyl-prolyl-2′,4′,6′-trimethyl-L-phenylalanyl-Nε-(1′-octyl β-D-glucuronyl)-L-lysine amide] (H-[Dmt]P[Phe(2,4,6-Me3)]K(GlcA(β1-O-octyl))-NH2)
Mu opioid receptor [1]
  Characterization (MOP): partial agonist
  EC50: 0.1 µM
Mu opioid receptor [2]
  IC50: 0.1 µM

## CCCCCCCCCCCCO[C@@H]1O[C@H](C(=O)NCCCC[C@H](NC(=O)[C@H](Cc2c(C)cc(C)cc2C)NC(=O)[C@@H]2CCCN2C(=O)[C@@H](N)Cc2c(C)cc(O)cc2C)C(N)=O)[C@@H](O)[C@H](O)[C@H]1O [EU-A103, Dmt-Pro-Tmp-Lys(C12-glucuronyl)-NH2] (H-[Dmt]P[Phe(2,4,6-Me3)]K(GlcA(β-D,1-O-dodecyl))-NH2)
Mu opioid receptor [1]
  Characterization (MOP): pure antagonist
Mu opioid receptor [2]
  IC50: 0.086 µM

## CCCCCCCCCCCCO[C@@H]1O[C@H](C(=O)NCCCC[C@H](NC(=O)[C@@H](NC(=O)[C@H](Cc2ccccc2)NC(=O)[C@H](CCC(=O)O)NC(=O)[C@@H]2CCCCNC(=O)CC[C@H](NC(=O)[C@H](CC(=O)O)NC(=O)[C@H](CC(C)C)NC(=O)[C@H](Cc3ccc(O)cc3)NC(=O)[C@H](CCCCN)NC(=O)[C@H](CO)NC(=O)[C@H](Cc3ccc(O)cc3)NC(=O)[C@H](CC(=O)O)NC(=O)[C@H](CO)NC(=O)[C@@H](NC(=O)[C@H](Cc3ccccc3)NC(=O)[C@@H](NC(=O)CNC(=O)[C@H](CCC(N)=O)NC(=O)C(C)(C)NC(=O)[C@@H](N)Cc3c[nH]cn3)[C@@H](C)O)[C@@H](C)O)C(=O)N[C@@H](CCC(N)=O)C(=O)N[C@@H](C)C(=O)N[C@@H](C)C(=O)N2)[C@@H](C)CC)C(=O)N[C@@H](Cc2c[nH]c3ccccc23)C(=O)N[C@@H](CC(C)C)C(=O)N[C@@H](CC(C)C)C(=O)N[C@@H](CCC(N)=O)C(=O)N[C@H](C(N)=O)[C@@H](C)O)[C@@H](O)[C@H](O)[C@H]1O [EU-A993]
db/db mice; 0 hr
  Mean Blood Glucose: 503 mg/dL
db/db mice; 10 hr
  Mean Blood Glucose: 305 mg/dL
db/db mice; 24 hr
  Mean Blood Glucose: 324 mg/dL
db/db mice; 48 hr
  Mean Blood Glucose: 426 mg/dL
[3]
  amount of intact compound versus time in human plasma: essentially no change

## CC[C@H](C)[C@H](NC(=O)[C@H](Cc1ccccc1)NC(=O)[C@H](CCC(=O)O)NC(=O)[C@H](CCCCN)NC(=O)[C@H](C)NC(=O)[C@H](C)NC(=O)[C@H](CCC(N)=O)NC(=O)CNC(=O)[C@H](CCC(=O)O)NC(=O)[C@H](CC(C)C)NC(=O)[C@H](Cc1ccc(O)cc1)NC(=O)[C@H](CO)NC(=O)[C@H](CO)NC(=O)[C@@H](NC(=O)[C@H](CC(=O)O)NC(=O)[C@H](CO)NC(=O)[C@@H](NC(=O)[C@H](Cc1ccccc1)NC(=O)[C@@H](NC(=O)CNC(=O)[C@H](CCC(=O)O)NC(=O)[C@H](C)NC(=O)[C@@H](N)Cc1c[nH]cn1)[C@@H](C)O)[C@@H](C)O)C(C)C)C(=O)N[C@@H](C)C(=O)N[C@@H](Cc1c[nH]c2ccccc12)C(=O)N[C@@H](CC(C)C)C(=O)N[C@H](C(=O)N[C@@H](CCCCN)C(=O)NCC(=O)N[C@@H](CCCNC(=N)N)C(N)=O)C(C)C [GLP-1 (7-36), reference compound]
[3]
  amount of intact compound versus time in human plasma: rapid decrease

## CC[C@H](C)[C@H](NC(=O)[C@H](CCC(=O)O)NC(=O)[C@H](CO)NC(=O)[C@@H](NC(=O)[C@@H](N)CO)C(C)C)C(=O)N[C@@H](CCC(N)=O)C(=O)N[C@@H](CC(C)C)C(=O)N[C@@H](CCSC)C(=O)N[C@@H](Cc1cnc[nH]1)C(=O)N[C@@H](CC(N)=O)C(=O)N[C@@H](CC(C)C)C(=O)NCC(=O)N[C@@H](CCCCN)C(=O)N[C@@H](Cc1cnc[nH]1)C(=O)N[C@@H](CC(C)C)C(=O)N[C@@H](CC(N)=O)C(=O)N[C@@H](CO)C(=O)N[C@@H](CCSC)C(=O)N[C@@H](CCC(=O)O)C(=O)N[C@@H](CCCN=C(N)N)C(=O)N[C@H](C(=O)N[C@@H](CCC(=O)O)C(=O)N[C@@H](Cc1c[nH]c2ccccc12)C(=O)N[C@@H](CC(C)C)C(=O)N[C@@H](CCCN=C(N)N)C(=O)N[C@@H](CCCCN)C(=O)N[C@@H](CCCCN)C(=O)N[C@@H](CC(C)C)C(=O)N[C@@H](CCC(N)=O)C(=O)N[C@@H](CC(=O)O)C(=O)N[C@H](C(=O)N[C@@H](Cc1cnc[nH]1)C(=O)N[C@@H](CC(N)=O)C(=O)N[C@@H](Cc1ccccc1)C(=O)O)C(C)C)C(C)C [PTH]
[4]
  half-life: 30 min

## CC[C@H](C)[C@H](NC(=O)[C@H](CCC(=O)O)NC(=O)[C@H](CO)NC(=O)[C@@H](NC(=O)[C@@H](N)CO)C(C)C)C(=O)N[C@@H](CCC(N)=O)C(=O)N[C@@H](CC(C)C)C(=O)N[C@@H](CCSC)C(=O)N[C@@H](Cc1cnc[nH]1)C(=O)N[C@@H](CC(N)=O)C(=O)N[C@@H](CC(C)C)C(=O)NCC(=O)N[C@@H](CCCCN)C(=O)N[C@@H](Cc1cnc[nH]1)C(=O)N[C@@H](CC(C)C)C(=O)N[C@@H](CC(N)=O)C(=O)N[C@@H](CO)C(=O)N[C@@H](CCSC)C(=O)N[C@@H](CCC(=O)O)C(=O)N[C@@H](CCCN=C(N)N)C(=O)N[C@H](C(=O)N[C@@H](CCC(=O)O)C(=O)N[C@@H](Cc1c[nH]c2ccccc12)C(=O)N[C@@H](CC(C)C)C(=O)N[C@@H](CCCN=C(N)N)C(=O)N[C@@H](CCCCN)C(=O)N[C@@H](CCCCN)C(=O)N[C@@H](CC(C)C)C(=O)N[C@@H](CCC(N)=O)C(=O)N[C@@H](CC(=O)O)C(=O)N[C@H](C(=O)N[C@@H](Cc1cnc[nH]1)C(=O)N[C@@H](CC(N)=O)C(=O)N[C@@H](Cc1ccccc1)C(=O)O)C(C)C)C(C)C [Teriparatide]
[5]
  half life: 19 min
